Measured values reported in PubChem BioAssay (NCI).
Where “and” joins values, the source holds several entries; their conditions need not be identical. Equal values may be shown once.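 Five compound concentrations were applied to cells in 96-well plates for 48 hours; endpoints were derived by simple linear interpolation of the resulting dose-response curve. The concentration for full growth arrest is given as TGI.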

Assays:
Experiment in all cases: NCI anticancer screen, dose series, 48 h
A549 NSCLC = test system: A549 NSCLC
BT-549 breast = test system: BT-549 breast
HCC-2998 colon = test system: HCC-2998 colon
HL-60(TB) leukemia = test system: HL-60(TB) leukemia
HOP-62 NSCLC = test system: HOP-62 NSCLC
HOP-92 NSCLC = test system: HOP-92 NSCLC
MALME-3M melanoma = test system: MALME-3M melanoma
MDA-MB-231 breast = test system: MDA-MB-231 breast
MDA-MB-435 = test system: MDA-MB-435
NCI-H226 lung = test system: NCI-H226 lung
NCI-H23 lung = test system: NCI-H23 lung
OVCAR-3 ovarian = test system: OVCAR-3 ovarian
RPMI-8226 leukemia = test system: RPMI-8226 leukemia
SN12C renal = test system: SN12C renal
SNB-19 CNS = test system: SNB-19 CNS
U251 CNS = test system: U251 CNS
UO-31 renal = test system: UO-31 renal

Row | Structure (SMILES) | TGI (A549 NSCLC) [µM] | TGI (BT-549 breast) [µM] | TGI (HCC-2998 colon) [µM] | TGI (HL-60(TB) leukemia) | TGI (HOP-62 NSCLC) [µM] | TGI (HOP-92 NSCLC) [µM] | TGI (MALME-3M melanoma) [µM] | TGI (MDA-MB-231 breast) [µM] | TGI (MDA-MB-435) [µM] | TGI (NCI-H226 lung) [µM] | TGI (NCI-H23 lung) [µM] | TGI (OVCAR-3 ovarian) [µM] | TGI (RPMI-8226 leukemia) | TGI (SN12C renal) [µM] | TGI (SNB-19 CNS) [µM] | TGI (U251 CNS) [µM] | TGI (UO-31 renal) [µM]
1 | N#CC(C#N)=C(N)/C(C#N)=C/c1cc(O)c(O)c(Br)c1 | > 100 | > 100 | > 100 | > 92.3 µM | > 100 | > 100 | > 100 | > 100 | > 100 | > 79.1 | > 100 | 93.6 | > 100 µM | > 100 | > 100 | > 100 | > 100
2 | CCN1CC2=C(NC(=S)NC2c2cc(OC)c(OC)c(OC)c2)/C(=C/c2cc(OC)c(OC)c(OC)c2)C1 (centres undefined) | > 100 | > 100 | 88.8 | 56.7 µM | > 100 | 60.4 | 31.5 | > 100 | > 100 | > 100 | > 100 | > 100 | 42.9 µM |  | > 100 | > 100 | 67.7
3 | CCCCNC(=O)Nc1c(C(N)=O)c2n(c1C(=O)OCC)CCCCC2 |  | > 100 | > 100 | > 100 µM | > 100 | > 100 |  | 58.4 | > 100 | > 100 | > 100 |  | > 100 µM |  | > 100 | > 100 | > 100
4 | C=C(C)[C@@]1(O)CCC[C@H]1NC(=O)OC(C)(C)C | > 100 | > 100 | > 100 |  | > 100 | > 100 | > 100 | > 100 | > 100 | > 100 | > 100 | > 100 |  | > 100 | > 100 | > 100 | > 100
5 | Cc1cc2c(cc1C)[n+](=O)c(N1CCN(c3ccc([N+](=O)[O-])cc3)CC1)c(C#N)n2[O-] | > 100 | > 100 | > 100 | > 100 µM | 31.7 | 56.7 | > 100 | 78.1 | > 100 | > 100 | > 100 |  | > 100 µM | > 100 | 49.6 | 80.9 | > 100
6 | Cc1ccc(S(=O)(=O)Oc2ccc(OS(=O)(=O)c3ccc(C)cc3)c3c2C(=O)c2ccccc2C3=O)cc1 | > 100 | > 100 | > 100 | > 100 µM | > 100 | > 100 | > 100 | > 100 | > 100 | > 100 | > 100 | > 100 |  | > 100 | > 100 | > 100 | > 100
7 | N#CC1CCN2N=C(c3ccccc3)SC12c1ccccc1 (centres undefined) | > 100 | > 100 | > 100 | > 100 µM | > 100 | > 100 | > 100 | > 100 | > 100 | > 100 | > 100 |  | > 100 µM | > 100 | > 100 | > 100 | > 100
8 | COc1ccc(C(C2C(=O)N(C)C(=O)N(C)C2=O)C(F)(F)C(=O)N(C)C)cc1 (centres undefined) | > 100 | > 100 | > 100 |  | > 100 | > 100 | > 100 | > 100 | > 100 | > 100 | > 100 | > 100 | > 100 µM |  | > 100 | > 100 | > 100
9 | [N-]=[N+]=Nc1c([N+](=O)[O-])c(Cl)nc2ccccc12 | 35.2 | 3.11 | 4.17 |  | 41.4 | 3.66 | 3.41 | 3.65 | 6.64 | 33.5 | 6.64 | 2.86 | > 20.8 µM | 5.32 | 27.8 | 12.4 | 1.58
10 | O=C1NC(=O)C(C(c2ccc(Cl)cc2)C2C(=O)NC(=O)NC2=O)C(=O)N1 | > 100 | > 100 |  | > 100 µM | > 100 | > 100 | > 100 | > 100 | > 100 | > 100 | > 100 | > 100 | > 100 µM | > 100 | > 100 | > 100 | > 100
11 | COC(=O)NN=C(c1ccc(Cl)cc1)c1ccc(Cl)cc1 | > 100 | > 100 | > 100 | > 100 µM |  |  | > 100 | > 100 | > 100 | > 100 | > 100 | > 100 | > 100 µM | > 100 | > 100 | > 100 | > 100
12 | COc1ccc(-n2c(C)nc3ccc(NC4OCC(O)C(O)C4O)cc3c2=O)cc1 (centres undefined) |  | > 100 | > 100 | 62.4 µM and 68.2 µM | > 100 |  | > 100 | > 100 | > 100 | > 100 | > 100 | > 100 | 49.4 µM and 61.6 µM | > 100 | > 100 | > 100 | > 100
13 | O=C(CCc1ccc(O)c(O)c1)NCCc1cc(OCc2ccccc2)cc(OCc2ccccc2)c1 | > 100 | 20.2 | 23.5 | 7.27 µM | 37 | 35.6 |  | 48.8 | 60.8 | 48.2 | 31 | > 100 | > 100 µM | 28.6 | 18 | > 100 | 12.6
14 | CN1CCN(C(=S)N(C(=O)c2ccco2)c2ccccc2)CC1 | > 100 | > 100 | > 100 | > 100 µM |  | > 100 | > 100 | > 100 | > 100 | > 100 | > 100 | > 100 | > 100 µM | > 100 | > 100 | > 100 | > 100
15 | O=[N+]([O-])c1cccc2nc3ccccc3c(NCCCN3CCOCC3)c12 | 0.0674 | 0.115 |  | 0.157 µM | 0.0618 | 0.0434 | 0.026 | 0.0973 | 0.0242 | 0.0501 | 0.0418 | 0.0484 | 0.187 µM | 0.0455 | 0.177 | 0.14 | 0.0564
16 | O=C1c2ccccc2C(=O)N1CCCCCCNOCCCN1C(=O)c2ccccc2C1=O | > 100 | 85.4 | > 100 |  | > 100 | > 100 | > 100 | > 100 | 74.7 | > 100 | 97.1 | > 100 | 99.4 µM | > 100 | > 100 | > 100 | > 100
17 | Cc1c(C(=O)O)c2cc3ccccc3cc2c(=O)n1C | > 10 | > 10 | > 10 | > 10 µM |  | > 10 | > 10 | > 10 | > 10 | > 10 | > 10 | > 10 |  | > 10 | > 10 | > 10 | > 10
18 | CCCCCC(=O)OCC1(CO)C/C(=C\CC(C(C)C)C(C)C)C(=O)O1 (centres undefined) | > 100 | > 100 | > 100 |  | > 100 | > 100 | > 100 | > 100 | > 100 | > 100 | > 100 | > 100 |  | > 100 | > 100 | 85.3 | > 100
19 | CC(C)CC(=O)NC(NC(C)C)(C(F)(F)F)C(F)(F)F | > 100 | > 100 | > 100 | > 100 µM | > 100 | > 100 | > 100 | > 100 | > 100 | > 100 |  |  | > 100 µM | > 100 | > 100 | > 100 | > 100
20 | Oc1c(-c2ccccc2)sc2ccccc12 | 81.4 | 89.4 | 39 | 45.4 µM | 45.8 | 57.7 | 59.6 | 29.1 | > 100 | 64.4 | 77.5 | 36.2 | 43.5 µM |  | > 100 | > 100 | 84.6
21 | COc1ccc(N2C(=O)/C(=C\c3cccc(Oc4ccccc4)c3)S(=O)(=O)C2c2ccccc2)cc1 (centres undefined) | > 100 | 91.7 | > 100 | 58.9 µM | > 100 | > 100 | > 100 | > 100 | > 100 | > 100 | > 100 | > 100 |  | > 100 | > 100 | > 100 | > 100
22 | O=C(N/N=C1/C(=O)c2c3ccccc3cc3cccc1c23)c1cccc(Cl)c1 | > 100 | > 100 | > 100 | > 100 µM | > 100 | > 100 |  | > 100 | > 100 | > 100 | > 100 | > 100 | > 100 µM | > 100 | > 100 | > 100 | 
23 | C#CCOC(=O)C(N)CSSCC(N)C(=O)O (centres undefined) | > 100 | > 100 | > 100 | > 100 µM | > 100 | > 100 | > 100 | > 100 | > 100 | > 100 | > 100 |  | > 100 µM | > 100 | > 100 | > 100 | > 100
24 | C=C1CC(Cn2cc(C)c(=O)[nH]c2=O)(c2ccc(-c3ccccc3)cc2)OC1=O (centres undefined) | 23 | 3.08 | 5.23 |  | 29.4 | 3.75 | 6.81 | 5.16 | 3.74 | 35.5 | 3.99 | 1.66 | 1.9 µM | 8.26 | 27.4 | 16.1 | 11.5
25 | CCOC(=O)c1cc2c([nH]1)C(=O)CC1=C2CCN1Cc1ccccc1 | 73.5 | 38.3 |  | 54.1 µM |  | 28.3 | 13.2 | 28.8 | 27.6 | 32.3 | 29.6 |  | 16.6 µM | 35.3 | 31.8 | 25.4 | 29.5
26 | Cc1ccc(CS(=O)(=O)C/N=c2\sc3ccccc3nc2/C=C(\O)c2ccc(Cl)cc2)cc1 | > 10 | > 10 | > 10 |  | > 10 | > 10 | > 10 | > 10 | > 10 |  | > 10 | > 10 | > 10 µM | > 10 | > 10 | > 10 | 
27 | Cc1c(CCCl)c(N=[N+]=[N-])n2c(nc3ccccc32)c1C#N | 5.95 | 2.1 |  | 2.6 µM | 5.01 | 2.61 | 2.9 | 3.16 | 2.73 | 4.29 | 2.95 | 3.15 | 2.33 µM | 3.13 | 8.37 | 6.02 | 3.32
28 | Cc1ccc2c(=O)c(-c3nnc(N)s3)c[nH]c2n1 | > 100 | > 100 |  | > 100 µM | > 100 |  | > 100 | > 100 | > 100 | > 100 | > 100 | > 100 | > 100 µM | > 100 | > 100 | > 100 | > 100
29 | CN(C)C=Nc1cccc2cnccc12 | > 100 | > 100 |  | > 100 µM | > 100 | > 100 | > 100 | > 100 | > 100 | > 100 | > 100 | > 100 | > 100 µM | > 100 | > 100 | > 100 | > 100
